Some test systems named below: A549 NSCLC; BT-549 breast; CAKI-1 renal; DU-145 prostate; HOP-62 NSCLC; M14 melanoma; MALME-3M melanoma; PC-3 prostate; RPMI-8226 leukemia; RXF 393 renal; TK-10 renal.
Holding throughout (test): growth of human tumour cells (NCI), 48 h

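Growth conditions: 96-well plates. Treatment: test compound, 48 hours, 5 concentrations. Analysis: linear interpolation between bracketing concentrations; unreached endpoints set to highest concentration. GI50 marks 50% less growth. TGI marks complete inhibition of growth.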 Where only a bound is given, the exact number is not on record here.

On to `O=C(Nc1sccc1S(=O)(=O)c1ccc(Cl)cc1)c1ccc(Cl)cc1Cl`, for which the TGI with A549 NSCLC, in the test with BT-549 breast, with CAKI-1 renal, with DU-145 prostate, in the test with HOP-62 NSCLC and in the test on M14 melanoma was above 100 µM each time. In addition, the TGI with MALME-3M melanoma, in the test on PC-3 prostate, in the test on RPMI-8226 leukemia, in the test with RXF 393 renal and with TK-10 renal was above 100 µM in each case.
Regarding `C[As](C)SCC(NC(=O)CCC(N)C(=O)O)C(=O)NCC(=O)O.Cl.c1ccncc1` (stereo not drawn), the TGI in the test with A549 NSCLC came to 5.64 µM; with BT-549 breast it was 1.57 µM; with CAKI-1 renal it was 0.652 µM; in the test on DU-145 prostate, 0.556 µM; with HOP-62 NSCLC, 5.64 µM; with M14 melanoma it was 1.12 µM. For the same compound, the TGI with MALME-3M melanoma was determined as 0.119 µM; in the test on PC-3 prostate, 4 µM; with RPMI-8226 leukemia, 1.56 µM; in the test on RXF 393 renal, 0.398 µM; with TK-10 renal it was 0.595 µM.
As to `COC[C@@H]1Cc2cc(OC)c3c(c2[C@H](c2ccc(OC)c(OC)c2)[C@H]1COC)OCO3`, the TGI with A549 NSCLC, in the test with M14 melanoma, with MALME-3M melanoma, in the test with RXF 393 renal and with TK-10 renal was above 100 µM each time.
Consider `O=CNNC(=O)CSc1nc2ccc(I)cc2c(=O)n1Cc1ccccc1`, for which the TGI in the test on A549 NSCLC was above 100 µM; in the test with BT-549 breast, 99 µM; in the test on CAKI-1 renal, 57.5 µM; in the test with DU-145 prostate, above 100 µM; in the test with HOP-62 NSCLC, above 100 µM; in the test on M14 melanoma, above 100 µM. Besides, the TGI with PC-3 prostate was above 100 µM; with RPMI-8226 leukemia, 23.8 µM; in the test with RXF 393 renal it was 81.4 µM; in the test with TK-10 renal it was above 100 µM.
For the compound `COC1=CCC2=C(CCN(C(=O)C3CC3)C2Cc2ccc(OC)c(O)c2)C1` (stereo not drawn), the TGI in the test on A549 NSCLC, in the test on CAKI-1 renal, in the test on DU-145 prostate, in the test with HOP-62 NSCLC, in the test on M14 melanoma and in the test on MALME-3M melanoma was above 100 µM throughout. For the same compound, the TGI in the test with PC-3 prostate is above 100 µM; with RPMI-8226 leukemia it was above 100 µM; in the test on RXF 393 renal, 59.5 µM; in the test on TK-10 renal, above 100 µM.
For the compound `O=CN(O)CC(=O)O.[Ni]`, the TGI in the test with BT-549 breast, with CAKI-1 renal, in the test on DU-145 prostate, in the test with HOP-62 NSCLC, with M14 melanoma and in the test on MALME-3M melanoma was above 100 µM in each case. The TGI in the test with PC-3 prostate, in the test with RPMI-8226 leukemia and with RXF 393 renal was above 100 µM throughout. Moreover, in the test on CAKI-1 renal, the GI50 was above 100 µM.
As for `O=C1/C(=C/c2ccc3c(c2)OCO3)Sc2scc(-c3ccc(O)c(O)c3)[n+]21`, the TGI stood at 46.3 µM with A549 NSCLC; 6.13 µM in the test with BT-549 breast; 2.9 µM in the test on CAKI-1 renal; 13.1 µM in the test on DU-145 prostate; 41.6 µM in the test on HOP-62 NSCLC; 13.3 µM with M14 melanoma. Besides, the TGI with PC-3 prostate amounted to 16.2 µM; with RPMI-8226 leukemia it was 4.42 µM; in the test with TK-10 renal, 3.71 µM.
In the case of `CC(=O)C1=C(C)N(c2ccc(C)cc2)C2(O)C=CC(=O)C3=C(O)c4ccccc4C(=O)C312` (stereo not drawn), the TGI was above 100 µM with A549 NSCLC; 38.9 µM with BT-549 breast; 35.8 µM with CAKI-1 renal; above 100 µM in the test on DU-145 prostate; above 100 µM in the test with HOP-62 NSCLC; above 100 µM in the test with M14 melanoma. In addition, the TGI was 5.07 µM in the test with MALME-3M melanoma; 41.5 µM in the test with PC-3 prostate; above 100 µM in the test on RPMI-8226 leukemia; above 100 µM with RXF 393 renal; 47.2 µM in the test on TK-10 renal.
Regarding `Nc1nccc2c1ncn2C1C=C(CO)C(O)C1O` (stereo not drawn), the GI50 in the test with A549 NSCLC is above 1000 µM; with HOP-62 NSCLC, 0.408 µM; in the test with M14 melanoma, 7.18 µM; in the test with RPMI-8226 leukemia it was 243 µM; with RXF 393 renal, 851 µM; in the test on TK-10 renal, 29.4 µM. Moreover, the TGI with A549 NSCLC was above 1000 µM; in the test with HOP-62 NSCLC, 89.9 µM; in the test on M14 melanoma it was above 1000 µM; with RPMI-8226 leukemia, above 1000 µM; with RXF 393 renal, above 1000 µM; with TK-10 renal, above 1000 µM.
Take `CC(=O)OCC1OC(N2C(=O)CC(N)=Nc3ccccc32)C(OC(C)=O)C(OC(C)=O)C1OC(C)=O` (stereo not drawn): the TGI with A549 NSCLC, in the test on BT-549 breast, in the test on CAKI-1 renal, with DU-145 prostate, with HOP-62 NSCLC and in the test on M14 melanoma was above 100 µM each time. Also, the TGI in the test with MALME-3M melanoma was above 100 µM; in the test with PC-3 prostate, above 100 µM; in the test with RPMI-8226 leukemia, 49.8 µM; with RXF 393 renal, 95.1 µM; in the test with TK-10 renal it was above 100 µM.
Regarding `CC(C)(C)C(=O)CC(=O)C(F)(F)C(F)(F)C(F)(F)F.CC(C)(C)C(=O)CC(=O)C(F)(F)C(F)(F)C(F)(F)F.CC(C)(C)C(=O)CC(=O)C(F)(F)C(F)(F)C(F)(F)F.[Er]`, the TGI with A549 NSCLC, with BT-549 breast, with CAKI-1 renal, in the test with DU-145 prostate, with HOP-62 NSCLC and in the test on M14 melanoma was above 100 µM each time. Further, the TGI with MALME-3M melanoma, in the test with PC-3 prostate, in the test with RPMI-8226 leukemia and in the test on TK-10 renal was above 100 µM each time. For the same compound, the GI50 in the test with BT-549 breast was above 100 µM.
For the compound `CN(CCNC(=O)c1cn(C)c2c1ccc1cc(Cl)ccc12)CCNC(=O)c1cn(C)c2c1ccc1cc(Cl)ccc12`, the TGI in the test with BT-549 breast came out at 21.9 µM; in the test with CAKI-1 renal, 4.99 µM; with DU-145 prostate, 3.25 µM; in the test on M14 melanoma it was 3 µM; in the test on MALME-3M melanoma, 4.85 µM; in the test on PC-3 prostate, 11.5 µM. Besides, the TGI with TK-10 renal stood at 18.2 µM.

Source of the values: PubChem BioAssay (NCI).
